Data from PubChem BioAssay AID248 (DTP/NCI, 2004).
Several values for one entry are separate records, joined by “and”; a condition that tells them apart may be missing. Equal values may be shown once. Toxic doses and inconclusive results are not listed. No stated cut-off is given here; in the data, active means T/C of 150% or more; inactive means T/C below 125%.

Tested on: L1210 leukemia ip in BDF1 mice, survival T/C
Experiment: NCI In Vivo Anticancer Drug Screen. Data for tumor model L1210 Leukemia (intraperitoneal) in B6D2F1 (BDF1) mice
Conditions: endpoint: mean survival time, higher = longer survival
Outline: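 Ratio derived from survival: compound-dosed mice over vehicle-dosed mice, all bearing a transplantable tumor.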

[1] = dose: 100.0 mg/kg/injection, schedule: Q01DX001 (ip), vehicle: carboxymethylcellulose (CMC)
[2] = dose: 200.0 mg/kg/injection, schedule: Q01DX001 (ip), vehicle: carboxymethylcellulose (CMC)
[3] = dose: 400.0 mg/kg/injection, schedule: Q01DX001 (ip), vehicle: carboxymethylcellulose (CMC)
[4] = dose: 100.0 mg/kg/injection, schedule: Q01DX001 (ip), vehicle: saline
[5] = dose: 100.0 mg/kg/injection, schedule: Q01DX009 (ip), vehicle: Klucel (hydroxypropylcellulose) (HPC)
[6] = dose: 200.0 mg/kg/injection, schedule: Q01DX009 (ip), vehicle: Klucel (hydroxypropylcellulose) (HPC)
[7] = dose: 400.0 mg/kg/injection, schedule: Q01DX009 (ip), vehicle: Klucel (hydroxypropylcellulose) (HPC)
[8] = dose: 100.0 mg/kg/injection, schedule: Q01DX001 (ip), vehicle: Klucel (hydroxypropylcellulose) (HPC)
[9] = dose: 200.0 mg/kg/injection, schedule: Q01DX001 (ip), vehicle: Klucel (hydroxypropylcellulose) (HPC)
[10] = dose: 200.0 mg/kg/injection, schedule: Q04DX003 (ip), vehicle: Klucel (hydroxypropylcellulose) (HPC)
[11] = dose: 400.0 mg/kg/injection, schedule: Q04DX003 (ip), vehicle: Klucel (hydroxypropylcellulose) (HPC)
[12] = dose: 50.0 mg/kg/injection, schedule: Q01DX009 (ip), vehicle: saline
[13] = dose: 100.0 mg/kg/injection, schedule: Q01DX009 (ip), vehicle: saline
[14] = dose: 200.0 mg/kg/injection, schedule: Q01DX009 (ip), vehicle: saline
[15] = dose: 100.0 mg/kg/injection, schedule: Q04DX003 (ip), vehicle: Klucel (hydroxypropylcellulose) (HPC)
[16] = dose: 200.0 mg/kg/injection, schedule: Q01DX001 (ip), vehicle: saline
[17] = dose: 400.0 mg/kg/injection, schedule: Q01DX001 (ip), vehicle: saline
[18] = dose: 50.0 mg/kg/injection, schedule: Q01DX001 (ip), vehicle: carboxymethylcellulose (CMC)
[19] = dose: 50.0 mg/kg/injection, schedule: Q01DX009 (ip), vehicle: Klucel (hydroxypropylcellulose) (HPC)
[20] = dose: 400.0 mg/kg/injection, schedule: Q01DX001 (ip), vehicle: Klucel (hydroxypropylcellulose) (HPC)
[21] = dose: 400.0 mg/kg/injection, schedule: Q01DX009 (ip), vehicle: saline

Measured: T/C

CCC(C)N1OC1c1ccccc1 (stereo unspecified)
inactive: [1] 106 % of control | [2] 103 % of control | [3] 101 % of control

CCN(CC)CCCC(C)Nc1ccnc(/C=C/c2ccc(C(F)(F)F)cc2)c1 (stereo unspecified)
inactive: dose: 12.5 mg/kg/injection, schedule: Q01DX001 (ip), vehicle: saline 98 % of control | dose: 20.0 mg/kg/injection, schedule: Q04DX003 (ip), vehicle: saline 95 % of control | dose: 25.0 mg/kg/injection, schedule: Q01DX001 (ip), vehicle: saline 96 % of control | dose: 40.0 mg/kg/injection, schedule: Q04DX003 (ip), vehicle: saline 95 % of control | dose: 50.0 mg/kg/injection, schedule: Q01DX001 (ip), vehicle: saline 104 % of control | dose: 80.0 mg/kg/injection, schedule: Q04DX003 (ip), vehicle: saline 93 % of control | [4] 86 % of control

Cc1cc(Cl)cc(C)c1OC(=O)Nc1ccc(F)cc1
inactive: [5] 96 % of control | [6] 95 % of control | [7] 107 % of control

ClCC[N-]CC[N-]CCCl.[Cl][Pt+2][Cl]
inactive: [8] 113 % of control | [9] 107 % of control | [10] 104 % of control | [11] 88 % of control

S=C(N/N=C\c1ccccc1)N/N=C/c1ccccc1
inactive: dose: 100.0 mg/kg/injection, schedule: Q04DX002 (ip), vehicle: gum acacia 93 % of control | dose: 200.0 mg/kg/injection, schedule: Q04DX002 (ip), vehicle: gum acacia 96 % of control | dose: 400.0 mg/kg/injection, schedule: Q04DX002 (ip), vehicle: gum acacia 93 % of control

C/C=N/NC(=O)c1ccc[n+](C)c1
inactive: [12] 93 % of control | [13] 96 % of control | [14] 96 % of control

CCCCCCCCCCCCC1CC(=O)OC1=O (stereo unspecified)
inactive: [5] 97 % of control | [15] 93 % of control | [6] 95 % of control | [10] 91 % of control

C/C(=N/NC(N)=S)c1ccco1
inactive: [16] 119 % of control | [17] 102 % of control

CCCCOC(=O)c1nc[nH]c1[N+](=O)[O-]
inactive: dose: 100.0 mg/kg/injection, schedule: Q01DX001 (ip), vehicle: other 93 % of control | dose: 200.0 mg/kg/injection, schedule: Q01DX001 (ip), vehicle: other 101 % of control | dose: 400.0 mg/kg/injection, schedule: Q01DX001 (ip), vehicle: other 101 % of control

CN(C)CCCN1CCC2(CC1)C(C#N)C(=O)NC(=O)C2C#N (stereo unspecified)
inactive: dose: 100.0 mg/kg/injection, schedule: Q04DX002 (ip), vehicle: saline 92 % of control | dose: 200.0 mg/kg/injection, schedule: Q04DX002 (ip), vehicle: saline 100 % of control | dose: 400.0 mg/kg/injection, schedule: Q04DX002 (ip), vehicle: saline 111 % of control

O=C(O)c1ccc(NC(C[N+](=O)[O-])C(F)(F)C(F)(F)C(F)(F)F)cc1 (stereo unspecified)
inactive: dose: 25.0 mg/kg/injection, schedule: Q04DX003 (ip), vehicle: Klucel (hydroxypropylcellulose) (HPC) 103 % of control | dose: 50.0 mg/kg/injection, schedule: Q04DX003 (ip), vehicle: Klucel (hydroxypropylcellulose) (HPC) 93 % of control | dose: 100.0 mg/kg/injection, schedule: Q01DX009 (ip), vehicle: saline sonified 95 % of control | [15] 103 % of control and 115 % of control | dose: 200.0 mg/kg/injection, schedule: Q01DX009 (ip), vehicle: saline sonified 86 % of control | [10] 102 % of control | dose: 400.0 mg/kg/injection, schedule: Q01DX009 (ip), vehicle: saline sonified 88 % of control | [11] 100 % of control

CC(C)(O)CC1=C(O)c2ccccc2C(=O)C1=O
inactive: [18] 105 % of control | [1] 97 % of control | [2] 105 % of control | [3] 105 % of control

C/C(CC(C)C)=N/O
inactive: [4] 95 % of control | [16] 97 % of control | [17] 92 % of control

CCOC(=O)c1cnc2c(cnn2CC)c1NCC(C)C
inactive: [19] 100 % of control | [5] 100 % of control | [6] 103 % of control

O=C1CCCCC1(O)C[N+](=O)[O-] (stereo unspecified)
inactive: dose: 75.0 mg/kg/injection, schedule: Q01DX001 (ip), vehicle: carboxymethylcellulose (CMC) 96 % of control

O=C1C2C=CC=CC1C=C2
inactive: [19] 89 % of control | [8] 92 % of control | [5] 112 % of control | [9] 101 % of control | [6] 91 % of control | [20] 95 % of control

Clc1ccc(CN2COc3c(ccc4cccnc34)C2)cc1Cl
inactive: dose: 100.0 mg/kg/injection, schedule: Q04DX003 (ip), vehicle: saline sonified 105 % of control | dose: 200.0 mg/kg/injection, schedule: Q04DX003 (ip), vehicle: saline sonified 94 % of control | dose: 400.0 mg/kg/injection, schedule: Q04DX003 (ip), vehicle: saline sonified 100 % of control

O=S(OCc1ccccc1)OCc1ccccc1
inactive: [13] 98 % of control | [14] 104 % of control | [21] 91 % of control

CC(C)(C)C1CCC(Br)C(Cl)C1 (stereo unspecified)
inactive: [13] 98 % of control | [14] 105 % of control | [21] 100 % of control

COc1cc2c3c(c1)-c1c(ccc(OC)c1O)CC3N(C)CC2 (stereo unspecified)
inactive: dose: 25.0 mg/kg/injection, schedule: Q04DX003 (ip), vehicle: DMSO 93 % of control | dose: 50.0 mg/kg/injection, schedule: Q04DX003 (ip), vehicle: DMSO 91 % of control | dose: 100.0 mg/kg/injection, schedule: Q04DX003 (ip), vehicle: DMSO 91 % of control

CCC(=O)n1cc2ccc([N+](=O)[O-])cc2n1
inactive: dose: 100.0 mg/kg/injection, schedule: Q04DX002 (ip), vehicle: Klucel (hydroxypropylcellulose) (HPC) 112 % of control | dose: 200.0 mg/kg/injection, schedule: Q04DX002 (ip), vehicle: Klucel (hydroxypropylcellulose) (HPC) 104 % of control | dose: 400.0 mg/kg/injection, schedule: Q04DX002 (ip), vehicle: Klucel (hydroxypropylcellulose) (HPC) 101 % of control

O=C1OCCN1C(=O)c1ccc([N+](=O)[O-])cc1
inactive: [8] 97 % of control | [5] 89 % of control | [15] 97 % of control | [9] 94 % of control | [6] 94 % of control | [10] 98 % of control | [20] 97 % of control | [7] 88 % of control | [11] 98 % of control

O=[N+]([O-])Cc1c2ccccc2nc2ccccc12
inactive: dose: 50.0 mg/kg/injection, schedule: Q01DX009 (ip), vehicle: saline with Tween-80 87 % of control | dose: 100.0 mg/kg/injection, schedule: Q01DX009 (ip), vehicle: saline with Tween-80 87 % of control | dose: 200.0 mg/kg/injection, schedule: Q01DX009 (ip), vehicle: saline with Tween-80 87 % of control

COC(=O)/C=C/NC(=O)c1ccccc1C(=O)OC
inactive: [5] 98 % of control | [15] 94 % of control | [6] 96 % of control | [10] 103 % of control | [7] 109 % of control | [11] 100 % of control

Cc1c(Cl)c(Cl)c(Cl)c(Cl)c1Cl
inactive: dose: 100.0 mg/kg/injection, schedule: Q04DX003 (ip), vehicle: saline with Tween-80 101 % of control | dose: 200.0 mg/kg/injection, schedule: Q04DX003 (ip), vehicle: saline with Tween-80 95 % of control | dose: 400.0 mg/kg/injection, schedule: Q04DX003 (ip), vehicle: saline with Tween-80 95 % of control

CN1CCC=C(CN(c2ccccc2)c2ccccc2)C1
inactive: dose: 25.0 mg/kg/injection, schedule: Q01DX009 (ip), vehicle: saline 93 % of control | dose: 25.0 mg/kg/injection, schedule: Q04DX003 (ip), vehicle: saline 92 % of control | [12] 100 % of control | dose: 50.0 mg/kg/injection, schedule: Q04DX003 (ip), vehicle: saline 96 % of control | [13] 91 % of control | dose: 100.0 mg/kg/injection, schedule: Q04DX003 (ip), vehicle: saline 95 % of control

Cc1ccc(C)c(NC(=O)Nc2c(C)n(C)n(-c3ccccc3)c2=O)c1
inactive: [5] 96 % of control | [15] 97 % of control | [6] 95 % of control | [10] 89 % of control | [11] 93 % of control

CN1CCC(O)(c2ccc(F)cc2)C(C(=O)c2ccc(F)cc2)C1 (stereo unspecified)
inactive: [18] 100 % of control | [1] 100 % of control | [2] 94 % of control | [3] 94 % of control
